Data from patent US8980933B2, “Combretastatin analogs for use in the treatment of cancer” (Universitat Bayreuth, priority 2010, dated 2015).

Tests used:
Format in all cases: cell-based, human
518A2 cells [1] = assay: Mitochondrial membrane assay (JC-1), 518A2; details: 5 μM, red/green fluorescence ratio relative to untreated controls (100%), mean ± SD
Description: (§1) Values represent means of four independent experiments±standard deviation.
(§2) Changes in mitochondrial membrane potential were determined by the Mitochondrial Membrane Detection Kit (Stratagene, La Jolla, Calif., USA) according to the manufacturer's procedure. 72 h following treatment with 5 μM of the test compounds, cell samples were centrifuged at 400 g for 5 min. The pellets were resuspended in 500 μL diluted JC-1 solution, incubated at 37° C. for 15 min (HL-60) and then centrifuged again for 5 min at 400 g. After washing, the pellets were resuspended in 100 μL PBS and transferred into the wells of a black 96-well plate. The red (λex=585 nm, λem=590 nm) and green (λex=510 nm, λem=527 nm) fluorescence intensities were measured and their ratio was calculated.

518A2 cells [2] = assay: ROS generation, NBT assay, 518A2; details: 50 μM, relative to untreated controls (1%), mean ± SD
Description: (§3) The generation of reactive oxygen species (ROS) in tumor cells is a sign of cellular stress resulting in severe damage of cellular components such as DNA, lipids or proteins.
(§4) For the NBT assay, HL-60 cells (0.5·10^6/mL) were plated in 96-well tissue culture plates, and test compounds were added after 24 h incubation at 37° C. to achieve a final concentration of 50 μM. […] After removal of the cell medium by centrifugation, the cells in each well were resuspended in 100 μL 0.1% NBT, and the plates were placed in the incubator for 1 h. The reduced NBT was solubilized with 100 μl 2 M KOH and 130 μl DMSO for 30 min. The absorbance was measured for each well at 630 and 405 nm (background) using an ELISA plate reader. The adherent 518A2 cells (0.5·10^4/mL) were seeded out in 96-well tissue culture plates after trypsinization and incubation for 24 h at 37° C. to allow attachment, then treated similarly, only that the medium was removed prior to incubation with NBT for 4 h. All experiments were carried out in quadruplicate.

HL-60 cells [3] = assay: ROS generation, NBT assay, HL-60; details: 50 μM, relative to untreated controls (1%), mean ± SD
Description: as §3, §4

HL-60 cells [4] = assay: Mitochondrial membrane assay (JC-1), HL-60; details: 5 μM, red/green fluorescence ratio relative to untreated controls (100%), mean ± SD
Description: as §1, §2

[5] = system: KB-V1/Vbl cervical carcinoma cells; assay: MTT cell growth inhibition, KB-V1/Vbl; details: KB-V1/Vbl (Pgp+)
Description: The MCF-7/Topo cells were grown in E-MEM medium (Sigma) supplemented with 2.2 g/L NaHCO3, 110 mg/L sodium pyruvate and 5% FCS. The cells were maintained in a moisture-saturated atmosphere (5% CO2) at 37° C. in 75-mL culture flasks (Nunc, Wiesbaden, Germany). They were serially passaged following trypsinisation by 0.05% trypsin/0.02% EDTA (PAA laboratories, Clbe, Germany). Mycoplasma contamination was routinely monitored, and only mycoplasma-free cultures were used.
HL-60 leukemia cells (5×10^5/mL), and cells (5×10^4/mL) of 518A2 melanoma, HT-29 colon, KB-V1/Vbl cervix and MCF-7/Topo breast carcinoma were seeded out in 96-well tissue culture plates and cultured for 24 h. […] Blank and solvent controls were treated identically. MTT in phosphate buffered saline (5 mg/mL) was added to a final concentration of 0.05% (HL-60, 518A2) or 0.1% (HT-29, KB-V1/Vbl, MCF-7/Topo). After 2 h the formazan precipitate was dissolved in 10% sodium dodecylsulfate in DMSO containing 0.6% acetic acid in the case of the HL-60 cells. For the adherent 518A2, KB-V1/Vbl, MCF-7/Topo and HT-29 cells the microplates were swiftly turned to discard the medium before adding the solvent mixture. The microplates were gently shaken in the dark for 30 min and absorbance at 570 nm and 630 nm (background) was measured with an ELISA plate reader. All experiments were carried out in quadruplicate; the percentage of viable cells was calculated as the mean±SD with controls set to 100%.

[6] = system: MCF-7/Topo breast carcinoma cells; assay: MTT cell growth inhibition, MCF-7/Topo; details: MCF-7/Topo (BCRP+)
Description: The effects of the compounds 5b, 6b, 8a, and 8e according to the present invention and of the reference compound 25f (Wang et al., J. Med. Chem. 2002, 45, 1697-1711) on cells of the following human tumor cell lines were evaluated: 518A2 melanoma, HL-60 leukemia, HT-29 colon carcinoma, KB-V1/Vbl cervical carcinoma, and MCF-7/Topo breast carcinoma.
The HL-60 cells were obtained from the German Collection of Biological Material (DSMZ), Braunschweig, Germany; the human 518A2 melanoma cells as well as the testicular germ cell tumor cell lines H12.1 and 1411HP were cultured in the department of oncology and hematology, Medical Faculty of the Martin-Luther University, Halle, Germany; the KBV1/Vbl and the MCF-7/Topo cells were obtained from the Institute of Pharmacy of the University Regensburg, Germany; and the colon HT-29 cells from the University Hospital Erlangen, Germany. The HL-60 and the HT-29 cells were grown in RPMI-1640 medium supplemented with 10% fetal calf serum (FCS), 100 IU/mL penicillin G, 100 μg/mL streptomycin sulfate, 0.25 μg/mL amphotericin B and 250 μg/mL gentamycine (all from Gibco, Egenstein, Germany). The 518A2 and the KB-V1/Vbl cells were cultured in Dulbecco's Modified Eagle Medium (D-MEM, Gibco) containing 10% FCS, 100 IU/mL penicillin G, 100 μg/mL streptomycin sulfate, 0.25 μg/mL amphotericin B and 250 μg/mL gentamycine. The MCF-7/Topo cells were grown in E-MEM medium (Sigma) supplemented with 2.2 g/L NaHCO3, 110 mg/L sodium pyruvate and 5% FCS. The cells were maintained in a moisture-saturated atmosphere (5% CO2) at 37° C. in 75-mL culture flasks (Nunc, Wiesbaden, Germany). They were serially passaged following trypsinisation by 0.05% trypsin/0.02% EDTA (PAA laboratories, Clbe, Germany). Mycoplasma contamination was routinely monitored, and only mycoplasma-free cultures were used.
MTT [3-(4,5-dimethylthiazol-2-yl)-2,5-diphenyltetrazolium bromide](ABCR) was used to identify viable cells which reduce it to a violet formazan (Mosmann, J. Immunol. Methods 1983, 65, 55-63). HL-60 leukemia cells (5×10^5/mL), and cells (5×10^4/mL) of 518A2 melanoma, HT-29 colon, KB-V1/Vbl cervix and MCF-7/Topo breast carcinoma were seeded out in 96-well tissue culture plates and cultured for 24 h. Incubation (5% CO2, 95% humidity, 37° C.) of the cells following treatment with the test compounds was continued for 24, 48 or 72 h. Blank and solvent controls were treated identically. […] The microplates were gently shaken in the dark for 30 min and absorbance at 570 nm and 630 nm (background) was measured with an ELISA plate reader. All experiments were carried out in quadruplicate; the percentage of viable cells was calculated as the mean±SD with controls set to 100%.

## COc1cc(-c2ncoc2-c2ccc(N(C)C)cc2)cc(N)c1OC [8b, 4-(3′-Amino-4′,5′-dimethoxyphenyl)-5-(4″-N,N-dimethylaminophenyl)-oxazole]
518A2 cells [1]
  Intact mitochondria [%] in 518A2 cells after 72 h: 82 ± 8%
518A2 cells [2]
  NBT Reduction [%] in 518A2 cells after 24 h: 1.4 ± 0.3%
HL-60 cells [3]
  NBT Reduction [%] in HL-60 cells after 24 h: 3.3 ± 0.2%
HL-60 cells [4]
  Intact mitochondria [%] in HL-60 cells after 72 h: 62 ± 12%

## COc1ccc(-c2c(-c3cc(N)c(OC)c(OC)c3)ncn2C)cc1O [8c, 1-Methyl-4-(3′-amino-4′,5′-dimethoxyphenyl)-5-(3″-hydroxy-4-methoxyphenyl)-imidazole]
518A2 cells [1]
  Intact mitochondria [%] in 518A2 cells after 72 h: 94 ± 7%
518A2 cells [2]
  NBT Reduction [%] in 518A2 cells after 24 h: 1.1 ± 0.0%
HL-60 cells [3]
  NBT Reduction [%] in HL-60 cells after 24 h: 1.8 ± 0.3%
HL-60 cells [4]
  Intact mitochondria [%] in HL-60 cells after 72 h: 76 ± 19%

## COc1ccc(-c2c(-c3cc(N)c(OC)c(OC)c3)ncn2C)cc1F [8d, 1-Methyl-4-(3′-amino-4′,5′-dimethoxyphenyl)-5-(3″-fluoro-4-methoxyphenyl)-imidazole]
518A2 cells [1]
  Intact mitochondria [%] in 518A2 cells after 72 h: 98 ± 15%
518A2 cells [2]
  NBT Reduction [%] in 518A2 cells after 24 h: 1.2 ± 0.1%
HL-60 cells [3]
  NBT Reduction [%] in HL-60 cells after 24 h: 1.4 ± 0.2%
HL-60 cells [4]
  Intact mitochondria [%] in HL-60 cells after 72 h: 90 ± 22%

## COc1ccc(-c2c(-c3cc(Cl)c(OC)c(OC)c3)ncn2C)cc1F [compound 5c, 1-Methyl-4-(3′-chloro-4′,5′-dimethoxyphenyl)-5-(3″-fluoro-4-methoxyphenyl)-imidazole]
518A2 cells [1]
  Intact mitochondria [%] in 518A2 cells after 72 h: 84 ± 6%
518A2 cells [2]
  NBT Reduction [%] in 518A2 cells after 24 h: 1.6 ± 0.1%
HL-60 cells [3]
  NBT Reduction [%] in HL-60 cells after 24 h: 4.8 ± 0.5%
HL-60 cells [4]
  Intact mitochondria [%] in HL-60 cells after 72 h: 55 ± 7%

## COc1cc(-c2ncn(C)c2-c2ccc(N(C)C)cc2)cc(Cl)c1OC [compound 5d, 1-Methyl-4-(3′-chloro-4′,5′-dimethoxyphenyl)-5-(4″-N,N-dimethylaminophenyl)-imidazole]
518A2 cells [1]
  Intact mitochondria [%] in 518A2 cells after 72 h: 80 ± 7%
518A2 cells [2]
  NBT Reduction [%] in 518A2 cells after 24 h: 2.4 ± 0.4%
HL-60 cells [3]
  NBT Reduction [%] in HL-60 cells after 24 h: 6.0 ± 0.9%
HL-60 cells [4]
  Intact mitochondria [%] in HL-60 cells after 72 h: 61 ± 13%

## COc1ccc(-c2c(-c3cc(Br)c(OC)c(OC)c3)ncn2C)cc1F [compound 6c, 1-Methyl-4-(3′-bromo-4′,5′-dimethoxyphenyl)-5-(3″-fluoro-4″-methoxyphenyl)-imidazole]
518A2 cells [1]
  Intact mitochondria [%] in 518A2 cells after 72 h: 89 ± 10%
518A2 cells [2]
  NBT Reduction [%] in 518A2 cells after 24 h: 1.4 ± 0.3%
HL-60 cells [3]
  NBT Reduction [%] in HL-60 cells after 24 h: 3.9 ± 0.1%
HL-60 cells [4]
  Intact mitochondria [%] in HL-60 cells after 72 h: 60 ± 15%

## COc1cc(-c2ncn(C)c2-c2ccc(N(C)C)cc2)cc(Br)c1OC [compound 6d, 1-Methyl-4-(3′-bromo-4′,5′-dimethoxyphenyl)-5-(4″-N,N-dimethylaminophenyl)-imidazole]
518A2 cells [1]
  Intact mitochondria [%] in 518A2 cells after 72 h: 82 ± 7%
518A2 cells [2]
  NBT Reduction [%] in 518A2 cells after 24 h: 1.6 ± 0.3%
HL-60 cells [3]
  NBT Reduction [%] in HL-60 cells after 24 h: 6.7 ± 0.8%
HL-60 cells [4]
  Intact mitochondria [%] in HL-60 cells after 72 h: 63 ± 13%

## COc1cc(-c2ncn(C)c2-c2ccc3c(c2)c(Cl)cn3C)cc(N)c1OC [compound 8e, 1-methyl-4-(3-amino-4,5-dimethoxyphenyl)-5-(N-methyl-3-chloroindol-5-yl)-imidazole]
518A2 cells [1]
  Intact mitochondria [%] in 518A2 cells after 72 h: 77 ± 8%
[5]
  efficacy (comparison): greater efficacy than 25f and 5b/6b
518A2 cells [2]
  NBT Reduction [%] in 518A2 cells after 24 h: 1.6 ± 0.3%
[6]
  cytotoxicity / efficacy (comparison): greater efficacy than 25f and 5b/6b
HL-60 cells [3]
  NBT Reduction [%] in HL-60 cells after 24 h: 6.4 ± 0.3%
HL-60 cells [4]
  Intact mitochondria [%] in HL-60 cells after 72 h: 60 ± 15%
